From patent US10918108B2, “Synergistic herbicidal composition” (JIANGSU ROTAM CHEMISTRY CO., LTD, priority 2016, dated 2021)

Tested on: gramineous weeds, broadleaf weeds and sedge weeds
Experiment: Weed control efficacy, greenhouse pot test, survival rate compared with Colby value (Table 1)
Type: in vivo
Excerpt: The desired efficacy of the combination of three active compounds can be calculated through “Colby formula” as follows (S. R. Colby, “Calculating Synergistic and Antagonistic Responses of Herbicide Combinations, Weeds 1967, 15, 20-22): if
A is the activity of active compound A when used in an amount of mg/ha or concentrate of mppm, expressed as a percentage of untreated control;
B is the activity of active compound B when used in an amount of ng/ha or concentrate of nppm, expressed as a percentage of untreated control;
C is the activity of active compound C when used in an amount of hg/ha or concentrate of hppm, expressed as a percentage of untreated control;
E0 is the anticipated activity of active compounds A, B and C when used in an amount of m, n, h g/ha or concentrate of m, n, h ppm, E0=A×B×C/(100^(N-1)) N=3;
If the observed actual activity E is greater than the anticipated activity (E0), then the composition has synergistic effect.
If the observed actual efficiency of weed control (E) through the biology test is greater than the anticipated value (E0) as calculated via Colby's equation, then it represents that the efficacy of herbicidal composition is greater than the sum of efficacy of each component, which means the composition has synergistic effect.
Use stem and leaf treatment for potted grown plant(NY/T 1155.4-2006): fill a plastic pot (6 cm height, 9 cm diameter) with a quantity of soil and sow 15 to 20 seeds of monocotyledonous weeds and dicotyledonous weeds in the plastic pot, cover it with 0.5 to 1 cm thick of fine soil and then put it in greenhouse for cultivation. When weeds grow to the 2 to 4 leave stage, conduct the stem and leaf spray treatment with 1 mL herbicidal solution on each pot and repeat four times for each treatment and leave some pots untreated as control group. Keep the treated pots in a greenhouse for cultivation and observe the growing status of target weeds periodically. Conduct the visual test on the target weeds regarding the damage symptoms and growth inhibition effect after 21 days. Weigh up the fresh weight above the ground or plant fresh weight and evaluate the toxicity of the herbicidal formulation on target weeds based on the fresh weight inhibition rate of the target.
Prepare the following formulations according to specific weight percentages: 1. Pyroxasulfone; 2. Mesotrione; 3 Atrazine; 4. Pyroxasulfone+Mesotrione; 5. Pyroxasulfone+Atrazine; 6. Mesotrione+Atrazine; 7. Pyroxasulfone+Mesotrione+Atrazine. After that, dilute above formulations with water to obtain diluted formulations.
Conduct visual assessment the damage symptom and growth inhibition status of target weeds after 21 days. Weigh up the fresh weight above the ground and calculate the inhibition rate of fresh weight (%).
Anticipated effects of the special combined three active components can be calculated through so called “Colby formula”. If the actual efficiency of weed control observed during the biology test exceeds the anticipated value […] calculated by Colby's formula, then it represents that the efficacy of herbicidal composition is greater than the sum of efficacy of each component, which means the composition has synergistic effect.
The synergistic herbicidal composition of present invention has conducted test on the following important harmful plants (gramineous weeds, broadleaf weeds, sedge weeds) with wide herbicidal spectrum: Echinochloa oryzicola, Digitaria spp., Stellaria media, Amaranthus retroflexus, Fallopia(ex Polygonum) Convolvulus, Abuthilon theophrasti, Sagittariatrifolia, Oriental Waterplantain Rhizome, Herb of Pygmy Arrowhead, Monochoria korsakowii, Lindernia procumbens, Solanum nigrum L., Scirpus juncoides Roxb, Cyperus difformis L., Chenopodium alum L., Avena fatua L. and Galium aparine L. var. tenerum Gren. et (Godr.) Rebb.

Row | Compound | Actual survival rate (%) (application rate 1 g/ha) | Actual survival rate (%) (application rate 50 g/ha) | Actual survival rate (%) (application rate 100 g/ha) | Actual survival rate (%) (application rate 25 g/ha) | Actual survival rate (%) (application rate 5 g/ha) | Actual survival rate (%) (application rate 10 g/ha)
1 | CCNc1nc(Cl)nc(NC(C)C)n1 [Atrazine, 2-chloro-4-ethylamino-6-isopropylamino-1,3,5-triazine] | 100 | 100 | 67 | – | – | –
2 | CS(=O)(=O)c1ccc(C(=O)C2C(=O)CCCC2=O)c([N+](=O)[O-])c1 [Mesotrione, 2-(4-mesyl-2-nitrobenzoyl)cyclohexane-1,3-dione] | 100 | 74 | – | 87 | – | –
3 | Cn1nc(C(F)(F)F)c(CS(=O)(=O)C2=NOC(C)(C)C2)c1OC(F)F [Pyroxasulfone, 3-[5-(difluoromethoxy)-1-methyl-3-(trifluoromethyl)pyrazol-4-ylmethylsulfonyl]-4,5-dihydro-5,5-dimethyl-1,2-oxazole] | 89 | – | – | – | 78 | 60
